Source: patent US4358607A, “Chloro-substituted benzospiro cyclopropane carboxylic acid” (American Cyanamid Co., priority 1978, dated 1982)

Legend:
Assay type in all cases: in vivo
[1] = system: Southern Armyworm [Spodoptera eridania]; test: Southern Armyworm residual activity, 7 days; conditions: 7 days from original treatment
Experimental: (§1) Southern Armyworm [Spodoptera eridania (Cramer)].
(§2) A sieva lima bean plant with just the primary leaves expanded to 7.6 to 10 cm is dipped for 3 seconds with agitation in a 1000 ppm solution and set in a hood to dry. Following this, one leaf is placed in a 10 cm petri dish which has a moist filter paper in the bottom and 10 third-instar armyworm larvae about 1 cm long. The dish is covered and held at 26.7° C. After 2 days mortality counts and estimates of the amount of feeding are made. Compounds showing partial kill and/or inhibition of feeding are held for an extra day for further observations.
All compounds showing activity as defined above are retested, using the second leaf on the bean plant, after an interval of 7 days from original treatment, as an assay of residual activity.
The rating system employed in these tests is as follows: […]

[2] = system: Two-Spotted Spider Mite [Tetranychus urticae]; test: Phosphate-Resistant Strain of Two-Spotted Spider Mite test
Experimental: Phosphate-Resistant Strain of Two-Spotted Spider Mite [Tetranychus urticae (Koch)].
Sieva lima bean plants, with primary leaves 7.6 to 10 cm long, are infested with about 100 adult mites per leaf 4 hours before use in this test, in order to allow egg-laying before treatment. The infested plants are dipped for 3 seconds with agitation into a 300 ppm solution, and the plants set in the hood to dry. After 2 days at 26.7° C., the adult mite mortality is estimated on one leaf under a 10X stereoscopic microscope. The other leaf is left on the plant an additional 5 days and then examined at 10X power to estimate the kill of eggs and of newly-hatched nymphs, giving a measure of ovicidal and residual action, respectively.
(§3) The rating system employed in these tests is as follows:
(§4) Compounds rated active (8 or 9) are further tested at reduced concentrations in 50% acetone: 50% water.

[3] = system: Southern Armyworm [Spodoptera eridania]; test: Southern Armyworm test; conditions: 2 days
Experimental: as §1, §2, §3, §4

[4] = system: Mexican Bean Beetle (Epilachna varivestis); test: Mexican Bean Beetle test
Description: Mexican Bean Beetle (Epilachna varivestis Mulsant)
Sieva lima bean plants (2 per pot) with primary leaves 7.6 to 10 cm long, are dipped in a 300 ppm solution and set in a hood to dry. One leaf is removed from the plant and placed in a 10 cm petri dish containing a moist filter paper on the bottom and 10 last-instar larvae (13 days from hatching).
The day after treatment, another leaf is removed from the plant and fed to the larvae after removing the remains of the original leaf. Two days after treatment, the third leaf is fed to the larvae, this usually being the last needed. The fourth leaf is used on the third day after treatment if the larvae have not finished feeding. The test is now set aside and held until adults have emerged, usually about 9 days after treatment began. After emergence is complete, each dish is examined for dead larvae, pupae or adults; deformed pupae or adults; larval-pupal intermediates or pupal-adult intermediates; or any other interference with normal molting, transformation and emergence of pupae or adults.
as §3, §4

## CC1(C)C(C(=O)OC(C#N)c2cccc(Oc3ccccc3)c2)C12C=C(Cl)c1ccccc12 (stereo not shown) [drawing 11]
[1]
  Insecticidal activity rating, Southern Armyworms, 7-days: 0 (0-4% killed or affected)
[2]; 10 ppm
  Activity rating, Phosphate Resistant Mites: 0 (0-4% killed or affected)
[2]; 100 ppm
  Activity rating, Phosphate Resistant Mites: 5 (51-60% mortality)
[2]; 300 ppm
  Activity rating, Phosphate Resistant Mites: 8 (86-95% mortality)
[3]; 10 ppm
  Insecticidal activity rating, Southern Armyworms: 7 (71-85% mortality)
[3]; 100 ppm
  Insecticidal activity rating, Southern Armyworms: 9 (100% mortality)
[3]; 1000 ppm
  Insecticidal activity rating, Southern Armyworms: 9 (100% mortality)
[4]; 10 ppm
  Insecticidal activity rating, Mexican Bean Beetles: 9 (100% mortality)
[4]; 100 ppm
  Insecticidal activity rating, Mexican Bean Beetles: 9 (100% mortality)
[4]; 300 ppm
  Insecticidal activity rating, Mexican Bean Beetles: 9 (100% mortality)
